Where two headings read alike, the source gives them in different places.
Target: T1, F508delCFTR (Homo sapiens, UniProt P13569, DEL508-508)
T1 construct: expressed in transfected cells; host or cells: CFBE41o- human lung derived epithelial cells (CFBE41o-F508delCFTR-HRP), doxycycline-inducible
Assay: Cell Surface Expression-Horse Radish Peroxidase (CSE-HRP) Assay;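 on EC50 (with co-corrector): co-corrector chromenyl benzoic acid corrector at 2 or 3 µM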;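 on Maximum % activity (without co-corrector): % of on-plate positive control chromenyl benzoic acid corrector at 2 or 3 µM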
Type: cell-based
Details: for Maximum % activity (with co-corrector) / Emax: maximum at any tested concentration; for Emax: read-out: Maximum % activity (without co-corrector)
Procedure, shortened: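 Corrector compounds were given as 8-point 3-fold series from 20 or 30 μM, with or without a 2 μM co-corrector, for 18-24 h at 33 °C. Surface HRP was read by luminol luminescence as % of positive control; variable-Hill-slope sigmoidal fitting gave EC50 from triplicate plates.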

[1] = test compound alone, without co-corrector, read-out: EC50 (without co-corrector)
[2] = with co-corrector, read-out: EC50 (with co-corrector)
[3] = test compound with co-corrector
[4] = test compound with co-corrector, read-out: EC50 (with co-corrector)
[5] = test compound without co-corrector
[6] = test compound without co-corrector, read-out: EC50 (without co-corrector)

T1 sequence (P13569 with tags, fused parts or gaps DEL508-508): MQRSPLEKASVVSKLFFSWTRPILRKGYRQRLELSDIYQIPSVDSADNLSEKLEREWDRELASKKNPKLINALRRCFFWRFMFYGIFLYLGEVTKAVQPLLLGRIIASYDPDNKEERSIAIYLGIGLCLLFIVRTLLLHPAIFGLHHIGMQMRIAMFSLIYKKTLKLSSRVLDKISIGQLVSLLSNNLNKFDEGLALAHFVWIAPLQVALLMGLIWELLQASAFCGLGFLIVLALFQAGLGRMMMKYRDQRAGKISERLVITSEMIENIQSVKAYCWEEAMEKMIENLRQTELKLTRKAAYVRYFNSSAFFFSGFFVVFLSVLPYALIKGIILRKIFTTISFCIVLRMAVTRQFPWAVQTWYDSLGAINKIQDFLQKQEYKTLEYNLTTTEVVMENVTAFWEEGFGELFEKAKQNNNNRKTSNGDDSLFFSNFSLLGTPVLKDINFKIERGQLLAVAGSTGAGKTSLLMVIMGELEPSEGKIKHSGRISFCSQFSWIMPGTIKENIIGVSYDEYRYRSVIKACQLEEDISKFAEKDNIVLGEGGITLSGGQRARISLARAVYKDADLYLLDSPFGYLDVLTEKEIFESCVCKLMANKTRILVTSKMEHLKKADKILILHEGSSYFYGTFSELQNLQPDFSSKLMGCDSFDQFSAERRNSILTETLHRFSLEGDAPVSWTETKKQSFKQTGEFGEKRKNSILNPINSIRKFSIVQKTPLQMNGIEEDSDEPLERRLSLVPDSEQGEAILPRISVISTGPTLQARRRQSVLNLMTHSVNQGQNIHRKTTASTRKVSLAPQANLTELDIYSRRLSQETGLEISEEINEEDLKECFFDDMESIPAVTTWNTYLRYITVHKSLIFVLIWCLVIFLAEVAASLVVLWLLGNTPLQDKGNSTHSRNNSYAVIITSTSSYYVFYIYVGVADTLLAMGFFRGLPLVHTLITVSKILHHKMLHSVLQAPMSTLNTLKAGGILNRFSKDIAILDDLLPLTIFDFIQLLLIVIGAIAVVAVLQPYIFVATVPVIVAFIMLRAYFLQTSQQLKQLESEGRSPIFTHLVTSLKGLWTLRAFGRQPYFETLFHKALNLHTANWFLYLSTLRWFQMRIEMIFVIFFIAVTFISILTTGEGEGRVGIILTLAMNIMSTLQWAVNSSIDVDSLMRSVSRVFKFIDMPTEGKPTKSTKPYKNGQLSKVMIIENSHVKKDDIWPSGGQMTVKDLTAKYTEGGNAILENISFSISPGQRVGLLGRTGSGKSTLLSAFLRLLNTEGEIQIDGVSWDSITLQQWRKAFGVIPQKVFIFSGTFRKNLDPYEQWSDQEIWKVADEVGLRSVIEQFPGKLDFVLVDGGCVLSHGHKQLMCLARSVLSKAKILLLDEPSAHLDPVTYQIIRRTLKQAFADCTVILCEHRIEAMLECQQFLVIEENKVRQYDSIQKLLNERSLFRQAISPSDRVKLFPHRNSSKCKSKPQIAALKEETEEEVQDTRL

Row | SMILES | EC50 [1] [µM] | Maximum % activity (with co-corrector) (with co-corrector) | EC50 [2] [µM] | Emax (without co-corrector) [%] | Maximum % activity (with co-corrector) [3] | EC50 [4] [µM] | Emax [5] [%] | EC50 [6] [µM]
1 | CC(C)Oc1cnc(C2CCC2)cc1C1(C(=O)NS(=O)(=O)c2cccc3ncccc23)CC1 [Example GI-25, 1-{2-cyclobutyl-5-[(propan-2-yl)oxy]pyridin-4-yl}-N-(quinoline-5-sulfonyl)cyclopropane-1-carboxamide] | 3 to 10 | +++ (≥350) | < 3 | > 150 | – | – | – | –
2 | COc1ccc(C2CC2)cc1C1(C(=O)NS(=O)(=O)c2cccc3ccccc23)CC1 [Example I-12, 1-(5-cyclopropyl-2-methoxyphenyl)-N-(naphthalene-1-sulfonyl)cyclopropane-1-carboxamide] | < 3 | +++ (≥350) | < 3 | > 150 | – | – | – | –
3 | CCOc1ccc(C)cc1C1(C(=O)NS(=O)(=O)c2cccc3nc(N)ccc23)CC1 [Example I-89, N-(2-aminoquinoline-5-sulfonyl)-1-(2-ethoxy-5-methylphenyl)cyclopropane-1-carboxamide] | < 3 | +++ (≥350) | < 3 | > 150 | – | – | – | –
4 | COc1cnc(OCC(C)C)c(C2(C(=O)NS(=O)(=O)c3cccc4ncccc34)CC2)c1 [Example GI-77, 1-[5-methoxy-2-(2-methylpropoxy)pyridin-3-yl]-N-(quinoline-5-sulfonyl)cyclopropane-1-carboxamide] | – | – | – | – | +++ (≥350) | < 3 | > 150 | < 3
5 | Cc1ccc(OC(C)C)c(C2(C(=O)NS(=O)(=O)c3cccc4nc(C)ccc34)CC2)c1 [Example I-78, 1-{5-methyl-2-[(propan-2-yl)oxy]phenyl}-N-(2-methylquinoline-5-sulfonyl)cyclopropane-1-carboxamide] | < 3 | +++ (≥350) | < 3 | > 150 | – | – | – | –
6 | Cc1cnc(F)cc1C1(C(=O)NS(=O)(=O)c2cccc3ncccc23)CC1 [GIII-16] | – | – | – | – | + (<150) | > 10 | < 50 | > 10
7 | COc1c(Cl)cc(Cl)c(OC)c1C1(C(=O)NS(=O)(=O)c2cccc3ncccc23)CC1 [Example III-103, 1-(3,5-dichloro-2,6-dimethoxyphenyl)-N-(quinoline-5-sulfonyl)cyclopropane-1-carboxamide] | 3 to 10 | +++ (≥350) | < 3 | > 150 | – | – | – | –
8 | CCOc1ccc(C)cc1C1(C(=O)NS(=O)(=O)c2cccc3[nH]c(C)cc23)CC1 [Example I-91, 1-(2-ethoxy-5-methylphenyl)-N-(2-methyl-1H-indole-4-sulfonyl)cyclopropane-1-carboxamide] | < 3 | +++ (≥350) | < 3 | > 150 | – | – | – | –
9 | CCc1cnc(OCC(C)C)c(C2(C(=O)NS(=O)(=O)c3cccc4nc(C)ccc34)CC2)c1 [Example GI-46, 1-[5-ethyl-2-(2-methylpropoxy)pyridin-3-yl]-N-(2-methylquinoline-5-sulfonyl)cyclopropane-1-carboxamide] | – | – | – | – | +++ (≥350) | < 3 | > 150 | < 3
10 | COc1ncc(C2CCC2)cc1C1(C(=O)NS(=O)(=O)c2cccc3[nH]ncc23)CC1 [II-15] | 3 to 10 | +++ (≥350) | < 3 | > 150 | – | – | – | –
11 | O=C(NS(=O)(=O)c1cccc2ccccc12)C1(c2cc(Cl)cnc2C(F)(F)F)CC1 [GII-5, 1-[5-chloro-2-(trifluoromethyl)pyridin-3-yl]-N-(naphthalene-1-sulfonyl)cyclopropane-1-carboxamide] | – | – | – | – | ++ (≥150 and <350) | 3 to 10 | 50 to 150 | 3 to 10
12 | Cc1cnc(OC(C)C)c(C2(C(=O)NS(=O)(=O)c3cccc4[nH]ncc34)CC2)c1 [Example III-131, N-(1H-indazole-4-sulfonyl)-1-{5-methyl-2-[(propan-2-yl)oxy]pyridin-3-yl}cyclopropane-1-carboxamide] | 3 to 10 | +++ (≥350) | 3 to 10 | > 150 | – | – | – | –
13 | Cc1ccc(C2(C(=O)NS(=O)(=O)c3cccc4nc(C)ccc34)CC2)c(OC(C)C)n1 [Example GI-81, 1-{6-methyl-2-[(propan-2-yl)oxy]pyridin-3-yl}-N-(2-methylquinoline-5-sulfonyl)cyclopropane-1-carboxamide] | – | – | – | – | +++ (≥350) | < 3 | > 150 | < 3
14 | CCC(CC)S(=O)(=O)NC(=O)C1(c2ccccc2)CC1 [Example III-116, N-(pentane-3-sulfonyl)-1-phenylcyclopropane-1-carboxamide] | > 10 | + (<150) | > 10 | < 50 | – | – | – | –
15 | COc1ncc(C(F)(F)F)cc1C1(C(=O)NS(=O)(=O)c2cccc3ncn(C)c23)CC1 [Example III-96, 1-[2-methoxy-5-(trifluoromethyl)pyridin-3-yl]-N-(1-methyl-1H-benzimidazole-7-sulfonyl)cyclopropane-1-carboxamide] | 3 to 10 | +++ (≥350) | 3 to 10 | 50 to 150 | – | – | – | –
16 | COc1ncc(C(F)(F)F)cc1C1(C(=O)NS(=O)(=O)c2cccc3c2ccn3C)CC1 [II-18] | 3 to 10 | +++ (≥350) | < 3 | > 150 | – | – | – | –
17 | COc1ccc(C2CCC2)cc1C1(C(=O)NS(=O)(=O)c2cccc3ccccc23)CC1 [Example I-2, 1-(5-cyclobutyl-2-methoxyphenyl)-N-(naphthalene-1-sulfonyl)cyclopropane-1-carboxamide] | < 3 | +++ (≥350) | < 3 | > 150 | – | – | – | –
18 | [2H]C1(c2ccc(OC)c(C3(C(=O)NS(=O)(=O)c4cccc5ncccc45)CC3)c2)COC1 [Example III-129, 1-{2-methoxy-5-[(3-^2H)oxetan-3-yl]phenyl}-N-(quinoline-5-sulfonyl)cyclopropane-1-carboxamide] | 3 to 10 | +++ (≥350) | 3 to 10 | > 150 | – | – | – | –
19 | COc1ccccc1C1(C(=O)NS(=O)(=O)c2cccc3ncccc23)CCC1 [II-6] | 3 to 10 | +++ (≥350) | < 3 | > 150 | – | – | – | –
20 | Cc1ccc2c(S(=O)(=O)NC(=O)C3(c4cc(N5CCC5)cnc4OC(C)C)CC3)cccc2n1 [Example GI-84, 1-{5-(azetidin-1-yl)-2-[(propan-2-yl)oxy]pyridin-3-yl}-N-(2-methylquinoline-5-sulfonyl)cyclopropane-1-carboxamide] | – | – | – | – | +++ (≥350) | < 3 | > 150 | 3 to 10
21 | Cc1ccc(OC(C)C)c(C2(C(=O)NS(=O)(=O)c3cccc4[nH]ncc34)CC2)c1 [II-75] | < 3 | +++ (≥350) | < 3 | > 150 | – | – | – | –
22 | COc1ccc(C23CC(C2)C3)cc1C1(C(=O)NS(=O)(=O)c2cccc3ncccc23)CC1 [Example I-38, 1-[5-(bicyclo[1.1.1]pentan-1-yl)-2-methoxyphenyl]-N-(quinoline-5-sulfonyl)cyclopropane-1-carboxamide] | < 3 | +++ (≥350) | < 3 | > 150 | – | – | – | –
23 | COc1cc(C2(C(=O)NS(=O)(=O)c3cccc4ccccc34)CC2)ccc1C [II-2] | 3 to 10 | +++ (≥350) | 3 to 10 | > 150 | – | – | – | –
24 | COc1ccc(C2CC2)cc1C1(C(=O)NS(=O)(=O)c2cccc3nc(C)ccc23)CC1 [II-60] | – | +++ (≥350) | – | > 150 | – | – | – | –
25 | Cc1ccc2c(S(=O)(=O)NC(=O)C3(c4cc(N5CCCC5)cnc4OCC(C)C)CC3)cccc2n1 [Example GI-69, 1-[2-(2-methylpropoxy)-5-(pyrrolidin-1-yl)pyridin-3-yl]-N-(2-methylquinoline-5-sulfonyl)cyclopropane-1-carboxamide] | – | – | – | – | +++ (≥350) | < 3 | > 150 | < 3
26 | CCc1cccc(OC)c1C1(C(=O)NS(=O)(=O)c2cccc3[nH]ncc23)CC1 [Example III-132, 1-(2-ethyl-6-methoxyphenyl)-N-(lH-indazole-4-sulfonyl)cyclopropane-1-carboxamide] | < 3 | +++ (≥350) | < 3 | > 150 | – | – | – | –
27 | COc1nc(C(F)(F)F)ccc1C1(C(=O)NS(=O)(=O)c2cccc3ncccc23)CC1 [GII-10, 1-[2-methoxy-6-(trifluoromethyl)pyridin-3-yl]-N-(quinoline-5-sulfonyl)cyclopropane-1-carboxamide] | – | – | – | – | +++ (≥350) | 3 to 10 | > 150 | 3 to 10
28 | COC(=O)c1ccc(S(=O)(=O)NC(=O)C2(c3ccc(Cl)cc3Cl)CC2)o1 [Example III-62, methyl 5-{[1-(2,4-dichlorophenyl)cyclopropane-1-carbonyl]ulfamoyl}furan-2-carboxylate] | > 10 | + (<150) | > 10 | < 50 | – | – | – | –
29 | COc1ccc(C(C)(C)OC)cc1C1(C(=O)NS(=O)(=O)c2cccc3nc(C)ccc23)CC1 [II-99] | < 3 | +++ (≥350) | < 3 | > 150 | – | – | – | –

Source: patent US10829473B2, “Modulators of the cystic fibrosis transmembrane conductance regulator protein and methods of use” (AbbVie Overseas S.Á.R.L., priority 2017, dated 2020)
